Results taken from PubChem BioAssay (NCI).
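A five-concentration, 48-hour dose response in 96-well plates underlies each endpoint, interpolated linearly between surrounding concentrations. TGI: total growth inhibition.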

How the values were obtained:
Assay in all cases: NCI anticancer screen, dose series, 48 h
[1] = system: HCC-2998 colon
[2] = system: OVCAR-5 ovarian
[3] = system: HT29 colon
[4] = system: SK-MEL-28 melanoma
[5] = system: TK-10 renal
[6] = system: U251 CNS
[7] = system: HS 578T breast
[8] = system: M14 melanoma
[9] = system: SR leukemia
[10] = system: SW-620 colon
[11] = system: NCI-H23 lung
[12] = system: SF-268 CNS
[13] = system: ACHN renal
[14] = system: RPMI-8226 leukemia
[15] = system: K-562 leukemia
[16] = system: CAKI-1 renal
[17] = system: SK-OV-3 ovarian
[18] = system: MDA-MB-435
[19] = system: SNB-75 CNS

SMILES | TGI [1] [µM] | TGI [2] [µM] | TGI [3] [µM] | TGI [4] [µM] | TGI [5] [µM] | TGI [6] [µM] | TGI [7] [µM] | TGI [8] [µM] | TGI [9] [µM] | TGI [10] [µM] | TGI [11] [µM] | TGI [12] [µM] | TGI [13] [µM] | TGI [14] [µM] | TGI [15] [µM] | TGI [16] [µM] | TGI [17] [µM] | TGI [18] [µM] | TGI [19] [µM]
CC1=C(C(=O)OCCO[N+](=O)[O-])C(c2cccc([N+](=O)[O-])c2)C(C(=O)OC(C)C)=C(C)N1 (stereo not given) | 29.6 | 30.4 | 29.2 | 28.1 | 42.9 | 28.7 | 33.2 | 29.5 | > 100 | 51.1 | 45.7 | 33 | > 100 | > 100 | > 100 | 95.7 | 36.9 | 30.9 | 
CC1=NN(c2nc(N)nc(/C(C#N)=C/c3ccccc3O)n2)C(C)(C)C1 | 36.5 | 30.4 | 42.6 | 30.8 | 58.4 | 41.3 | 35.4 | 36.4 | > 100 |  | 34.5 | 37.1 | 34.5 | 36.2 | > 100 | 36.9 | 53.2 | 32.9 | 
CCCCS(=O)(=O)CCC(N)P(=O)(O)O (stereo not given) |  | > 100 | > 100 | > 100 | > 100 | > 100 | > 100 | > 100 | > 100 | > 100 | > 100 | > 100 | > 100 | > 100 | > 100 | > 100 | > 100 | > 100 | > 100
Cc1ccc(Nc2nc(=O)c3c4ccccc4n(C(=O)OC(C)(C)C)c3s2)cc1 |  | 48.3 | > 100 | > 100 | 99.9 | > 100 | > 100 | 44.1 | 44.9 | > 100 | 50.4 | 59.3 | > 100 | 48.7 | > 100 | 66 | > 100 | 38.1 | > 100
CCOC(=O)c1c(SC(=O)c2ccc(C(C)(C)C)cc2)n(-c2ccccc2)c(=S)n(-c2ccccc2)c1=O | > 100 | > 100 | > 100 | > 100 | > 100 | > 100 | > 100 | > 100 | > 100 | > 100 | > 100 | > 100 | > 100 |  | > 100 | > 100 | > 100 | > 100 | > 100
COC1(c2ccc(Cl)cc2)SC=C(C)n2c1noc2=O (stereo not given) | > 100 | > 100 | > 100 | > 100 |  | > 100 | > 100 | > 100 | > 100 | > 100 | > 100 | > 100 | > 100 | > 100 | > 100 | > 100 |  | > 100 | 
c1ccc(C(C2=Nc3cccc4cccc(c34)N2)c2ccccc2)cc1 | 37.8 |  | 60.1 | 52 | > 100 | 35.3 | 81.8 | 65 |  | > 100 | > 100 | 66.1 | 50.2 | > 100 | 81.7 | > 100 | 51.8 | 66.1 | 72.4
CN(CC(=O)N1CC(CCl)c2ccc([N+](=O)[O-])cc21)CC(=O)N1CC(CCl)c2ccc([N+](=O)[O-])cc21 (stereo not given) | > 100 | > 100 | > 100 | > 100 | > 100 | > 100 | > 100 | > 100 |  | > 100 | > 100 | > 100 | > 100 | > 100 | > 100 | > 100 | > 100 | > 100 | > 100
COc1cc2c(cc1OC)[C@@H]1[C@H](C#N)C(=O)C(C)(C)N1CC2 | > 100 | > 100 | > 100 | > 100 | > 100 | > 100 | > 100 | > 100 | > 100 | > 100 | > 100 |  | > 100 | > 100 | > 100 | > 100 | > 100 | > 100 | 
Cc1ccc(Cc2n[nH]c(=O)[nH]2)cc1 | > 100 | > 100 | > 100 | > 100 | > 100 | > 100 | > 100 | > 100 | > 100 | > 100 | > 100 |  | > 100 |  | > 100 | > 100 | > 100 | > 100 | > 100
Cc1sc(Nc2ccc(Nc3nc(-c4ccccc4)c(C)s3)cc2)nc1-c1ccccc1 | 50.5 | > 100 | > 100 | > 100 | > 100 | 49.6 | > 100 | > 100 | > 100 | > 100 | > 100 | > 100 | > 100 |  | > 100 | > 100 | > 100 | > 100 | > 100
C=C(C)[C@@H]1CCC2=C[C@@H](OC2=O)[C@@H](C(=C)C)C2=CC(C(=O)O)=C(C1)O2 | > 100 | > 100 | > 100 |  | > 100 |  | > 100 | > 100 |  | > 100 | > 100 | > 100 | > 100 | > 100 | > 100 | > 100 | > 100 | > 100 | > 100
Cc1nnc2n1N=C(c1ccccc1)/C(=C/c1ccc(-c3ccc(Cl)cc3)o1)S2 | 19.9 | 39.9 | 44.7 |  | 26.4 | 24.4 | > 100 | 36.6 | 42.1 | 47.7 | 36.4 | 33.2 | 26.3 | 26.8 | 47.4 | 29.4 | > 100 | 22.3 | 
